Assay results taken from patent US10053453B2, “Compounds and their use as BACE inhibitors” (AstraZeneca AB, priority 2014, dated 2018).
Where two headings read alike, the source gives them in different places.

Assays:
[1] = target: T1, Human BACE2 (Homo sapiens, UniProt Q9Y5Z0); assay: TR-FRET assay; type: biochemical; settings: enzyme 2.7 μg/mL, substrate 100 nM, pH4.5
T1 construct: the soluble part of the human β-Secretase2 (AA1-AA473) was cloned using BACE2(1-473)-(AVT)-Fc-pDEST12.2 mammalian expression vector; AVT linker (C); made in house
T1 sequence (Q9Y5Z0 21-473): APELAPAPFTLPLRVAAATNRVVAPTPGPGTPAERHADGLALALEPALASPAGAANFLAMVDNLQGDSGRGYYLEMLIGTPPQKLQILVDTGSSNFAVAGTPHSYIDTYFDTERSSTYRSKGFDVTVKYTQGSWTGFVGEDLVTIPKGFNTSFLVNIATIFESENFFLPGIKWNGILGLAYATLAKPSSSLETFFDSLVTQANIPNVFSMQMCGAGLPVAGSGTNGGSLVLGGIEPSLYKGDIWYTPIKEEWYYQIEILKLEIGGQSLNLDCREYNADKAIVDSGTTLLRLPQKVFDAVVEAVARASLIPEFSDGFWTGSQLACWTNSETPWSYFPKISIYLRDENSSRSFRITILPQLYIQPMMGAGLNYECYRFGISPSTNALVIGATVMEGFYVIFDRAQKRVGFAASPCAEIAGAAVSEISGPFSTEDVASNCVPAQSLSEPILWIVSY
Experimental: (§1) The β-secretase enzyme used in the TR-FRET was prepared as follows:
(§2) Human BACE1: the cDNA for the soluble part of the human β-Secretase1 (AA1-AA460) was cloned using the BACE1(1-460)-(AVT)-Fc-pGEN-IRES-neo mammalian expression vector. The gene was fused to the Fe domain of IgG1 (affinity tag) and stably cloned into HEK 293 cells. […]
(§3) A multidrop Combi was used for the liquid handling. Enzyme (7 μL) was added to the compound plate (containing 0.8 μL of compound in dimethylsulphoxide). The plate was incubated for 10 minutes. Substrate (8 μL) was then added, and the reaction proceeded for 17 minutes at r.t. The reaction was stopped with the addition of Stop solution (5.5 μL, NaOAC, pH 9). Fluorescence was measured on a Pherastar plate reader using HTRF module. […] 5 reference inhibitors with different affinities were used at all screen occasions in dose response.

[2] = tested on: SH-SY5Y cells; assay: sAPPβ release assay
[3] = target: T2, Human BACE1 (Homo sapiens, UniProt P56817); assay: Diluted TR-FRET assay; type: biochemical; settings: 50 times less enzyme, 6.5 h reaction time at r.t.; read-out: IC50 BACE1 (dil. TR-FRET)
T2 construct: the soluble part of the human β-Secretase1 (AA1-AA460) was cloned using the BACE1(1-460)-(AVT)-Fc-pGEN-IRES-neo mammalian expression vector; AVT linker (C); made in house
T2 sequence (P56817 22-460): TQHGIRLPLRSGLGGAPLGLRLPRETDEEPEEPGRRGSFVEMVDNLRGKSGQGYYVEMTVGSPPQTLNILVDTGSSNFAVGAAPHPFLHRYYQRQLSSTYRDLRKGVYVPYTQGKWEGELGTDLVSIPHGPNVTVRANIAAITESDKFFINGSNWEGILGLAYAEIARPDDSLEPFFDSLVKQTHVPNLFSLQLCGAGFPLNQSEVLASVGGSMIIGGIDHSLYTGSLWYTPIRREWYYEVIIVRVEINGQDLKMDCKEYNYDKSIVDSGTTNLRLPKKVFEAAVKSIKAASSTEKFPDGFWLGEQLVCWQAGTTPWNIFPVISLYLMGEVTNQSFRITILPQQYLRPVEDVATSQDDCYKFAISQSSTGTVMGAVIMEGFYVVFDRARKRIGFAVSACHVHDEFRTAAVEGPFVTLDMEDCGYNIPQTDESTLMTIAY
Experimental: as §1, §2
as §3, with “Substrate (8 μL) was then added, and the reaction proceeded for 17 minutes at r.t.” left out

[4] = Homo sapiens, SH-SY5Y, read-out: IC50 Cell (sAPPβ release, nM), SH-SY5Y cells, compounds incubated 16-17 h
[5] = Homo sapiens, SH-SY5Y, read-out: IC50 Cell (sAPPβ release, nM)

IC50 [1] [nM] | IC50 [2, 4] [nM] | SMILES | IC50 [2, 5] [nM] | other results
888 | 1.6 | [2H]C1([2H])OC(N)=N[C@]12c1cc(-c3cccnc3F)ccc1C[C@@]21CC[C@H](OC)[C@@H](C)C1 [Compound 5, (1S,1′R,3S,4S)-6′-(2-fluoropyridin-3-yl)-4-methoxy-3-methyl-3′H,5″H-dispiro[cyclohexane-1,2′-indene-1′,4″-oxazol]-5″,5″-d2-2″-amine] |  | 
118 | 0.5 | [2H]C1([2H])OC(N)=N[C@]12c1cc(-c3cncc(F)c3)ccc1C[C@@]21CC[C@H](OC)[C@@H](C)C1 [Compound 9, (1S,1′R,3S,4S)-6′-(5-fluoropyridin-3-yl)-4-methoxy-3-methyl-3′H,5″H-dispiro[cyclohexane-1,2′-indene-1′,4″-oxazol]-5″,5″-d2-2″-amine] |  | 
 |  | COC1CCC2(CC1)Cc1ccc(-c3cc(Cl)cc(C#N)c3)cc1C21COC(N)=N1 (centres unmarked) [Compound 18, 3-((1r,4r)-2″-amino-4-methoxy-3′H,5″H-dispiro[cyclohexane-1,2′-indene-1′,4″-oxazol]-6′-yl-5″,5″-d2)-5-chlorobenzonitrile] |  | IC50 ([2]; read-out: IC50 Cell (sAPPβ release), SH-SY5Y cells, compounds incubated 16-17 h): 3.3 nM
135 | 1.8 | [2H]C1([2H])OC(N)=N[C@]12c1cc(-c3cncc(F)c3)ccc1C[C@]21CC[C@@H](OC)[C@H](C)C1 [Compound 25, (1R,1′R,3R,4R)-6′-(5-fluoropyridin-3-yl)-4-methoxy-3-methyl-3′H,5″H-dispiro[cyclohexane-1,2′-indene-1′,4″-oxazol]-5″,5″-d2-2″-amine] |  | 
 |  | CO[C@@H]1CC[C@]2(Cc3ccc(-c4cncnc4)cc3[C@@]23COC(N)=N3)C[C@H]1C [Compound 33, (1R,1′R,3R,4R)-4-methoxy-3-methyl-6′-(pyrimidin-5-yl)-3′H,5″H-dispiro[cyclohexane-1,2′-indene-1′,4″-oxazol]-2″-amine] | 2.2 | 
 |  | [2H]C1([2H])OC(N)=NC12c1cc(-c3cc(C#N)cc(OC)c3)ccc1C[C@]21CC[C@@H](OC)CC1 (some centres unmarked) [Compound 36, 3-((1r,4r)-2″-amino-4-methoxy-3′H,5″H-dispiro[cyclohexane-1,2′-indene-1′,4″-oxazol]-6′-yl-5″,5″-d2)-5-methoxybenzonitrile] | 4 | 
 |  | CO[C@H]1CC[C@]2(CC1)Cc1ccc(-c3cncc(C)c3)cc1C21COC(N)=N1 (some centres unmarked) [Compound 41, (1r,4r)-4-methoxy-6′-(5-methylpyridin-3-yl)-3′H,5″H-dispiro[cyclohexane-1,2′-indene-1′,4″-oxazol]-2″-amine] | 5.1 | 
 |  | CO[C@H]1CC[C@]2(CC1)Cc1ccc(-c3cncnc3)cc1[C@@]21COC(N)=N1 [Compound 47, (1r,1′R,4R)-4-methoxy-6′-(pyrimidin-5-yl)-3′H,5″H-dispiro[cyclohexane-1,2′-indene-1′,4″-oxazol]-2″-amine] | 9.1 | IC50 [3]: 152 nM
 |  | CO[C@H]1CC[C@]2(CC1)Cc1ccc(-c3cncnc3)cc1C21COC(N)=N1 (some centres unmarked) [Compound 50, (1r,4r)-4-methoxy-6′-(pyrimidin-5-yl)-3′H,5″H-dispiro[cyclohexane-1,2′-indene-1′,4″-oxazol]-2″-amine] | 16 | IC50 [3]: 579 nM
134 | < 0.16 | [2H]C([2H])([2H])O[C@H]1CC[C@@]2(Cc3ccc(-c4cncc(F)c4)cc3[C@]23N=C(N)OC3([2H])[2H])C[C@@H]1C [Compound 66, (1S,1′R,3S,4S)-6′-(5-fluoropyridin-3-yl)-4-(methoxy-d3)-3-methyl-3′H,5″H-dispiro[cyclohexane-1,2′-indene-1′,4″-oxazol]-5″,5″-d2-2″-amine] |  | 
736 | 1.7 | [2H]C1([2H])OC(N)=N[C@]12c1cc(-c3cccnc3F)ccc1C[C@]21CC[C@@H](OC)[C@H](C)C1 [Compound 67, (1R,1′R,3R,4R)-6′-(2-fluoropyridin-3-yl)-4-methoxy-3-methyl-3′H,5″H-dispiro[cyclohexane-1,2′-indene-1′,4″-oxazol]-5″,5″-d2-2″-amine] |  | 
 |  | [2H]C1([2H])OC(N)=N[C@]12c1cc(-c3cncnc3)ccc1C[C@@]21CC[C@H](OC)[C@@H](CC)C1 [Compound 68, (1S,1′R,3S,4S)-3-ethyl-4-methoxy-6′-(pyrimidin-5-yl)-3′H,5″H-dispiro[cyclohexane-1,2′-indene-1′,4″-oxazol]-5″,5″-d2-2″-amine] | 1.9 | 
 |  | [2H]C([2H])([2H])O[C@H]1CC[C@@]2(Cc3ccc(-c4cncnc4)cc3[C@]23N=C(N)OC3([2H])[2H])C[C@@H]1C [Compound 71, (1S,1′R,3S,4S)-4-(methoxy-d3)-3-methyl-6′-(pyrimidin-5-yl)-3′H,5″H-dispiro[cyclohexane-1,2′-indene-1′,4″-oxazol]-5″,5″-d2-2″-amine] | 1.3 | 
 |  | [2H]C([2H])([2H])O[C@@H]1CC[C@]2(Cc3ccc(-c4cncnc4)cc3[C@]23N=C(N)OC3([2H])[2H])C[C@H]1C [Compound 73, (1R,1′R,3R,4R)-4-(methoxy-d3)-3-methyl-6′-(pyrimidin-5-yl)-3′H,5″H-dispiro[cyclohexane-1,2′-indene-1′,4″-oxazol]-5″,5″-d2-2″-amine] | 6.1 | 
 | 0.39 | [2H]C([2H])([2H])O[C@H]1CC[C@@]2(Cc3ccc(-c4cccnc4F)cc3[C@]23N=C(N)OC3([2H])[2H])C[C@@H]1C [Compound 74, (1S,1′R,3S,4S)-6′-(2-fluoropyridin-3-yl)-4-(methoxy-d3)-3-methyl-3′H,5″H-dispiro[cyclohexane-1,2′-indene-1′,4″-oxazol]-5″,5″-d2-2″-amine] |  | 
 |  | [2H]C1([2H])OC(N)=N[C@]12c1cc(-c3cncnc3)ccc1C[C@]21CC[C@@H](OC)[C@H](CC)C1 [Compound 75, (1R,1′R,3R,4R)-3-ethyl-4-methoxy-6′-(pyrimidin-5-yl)-3′H,5″H-dispiro[cyclohexane-1,2′-indene-1′,4″-oxazol]-5″,5″-d2-2″-amine] | 0.9 | 
231 | 0.5 | [2H]C1([2H])OC(N)=N[C@]12c1cc(-c3cc(F)cnc3F)ccc1C[C@@]21CC[C@H](OC)[C@@H](C)C1 [Compound 76, (1S,1′R,3S,4S)-6′-(2,5-difluoropyridin-3-yl)-4-methoxy-3-methyl-3′H,5″H-dispiro[cyclohexane-1,2′-indene-1′,4″-oxazol]-5″,5″-d2-2″-amine] |  | 
 |  | CO[C@H]1CC[C@]2(CC1)Cc1ccc(-c3cncc(C)c3)cc1[C@@]21COC(N)=N1 [Compound 77, (1r,1′R,4R)-4-methoxy-6′-(5-methylpyridin-3-yl)-3′H,5″H-dispiro[cyclohexane-1,2′-indene-1′,4″-oxazol]-2″-amine] | 7.5 | 
895 | 1.5 | [2H]C([2H])([2H])O[C@@H]1CC[C@]2(Cc3ccc(-c4cccnc4F)cc3[C@]23N=C(N)OC3([2H])[2H])C[C@H]1C [Compound 78, (1R,1′R,3R,4R)-6′-(2-fluoropyridin-3-yl)-4-(methoxy-d3)-3-methyl-3′H,5″H-dispiro[cyclohexane-1,2′-indene-1′,4″-oxazol]-5″,5″-d2-2″-amine] |  | 
207 | 2.1 | [2H]C([2H])([2H])O[C@@H]1CC[C@]2(Cc3ccc(-c4cncc(F)c4)cc3[C@]23N=C(N)OC3([2H])[2H])C[C@H]1C [Compound 79, (1R,1′R,3R,4R)-6′-(5-fluoropyridin-3-yl)-4-(methoxy-d3)-3-methyl-3′H,5″H-dispiro[cyclohexane-1,2′-indene-1′,4″-oxazol]-5″,5″-d2-2″-amine] |  | 
458 | 1.8 | [2H]C1([2H])OC(N)=N[C@]12c1cc(-c3cc(F)cnc3F)ccc1C[C@]21CC[C@@H](OC)[C@H](C)C1 [Compound 109, {(1R,1′R,3R,4R)-6′-(2,5-difluoropyridin-3-yl)-4-methoxy-3-methyl-3′H,5″H-dispiro[cyclohexane-1,2′-indene-1′,4″-oxazol]-5″,5″-d2-2″-amine}] |  | 
